Experimental data taken from patent publication US12202942B2, “Functionalized silicone polymers and methods of making and using the same” (Wilmar Trading Pte. Ltd., priority 2018, dated 2025).

Legend:
Type in all cases: physicochemical
[1] = Brookfield viscosity of grafted siloxane derivatives
Description: (§1) The reactions were extremely exothermic and needed to be cooled by a dry ice bath once the temperature approached 30° C. For these reactions, an excess amount of terminal olefin substrate was used based on the equivalent weight (eqW) of hydrosiloxane. Reaction progress was monitored by FTIR as both the hydrosilane absorbance (2150 cm-1) and terminal olefin absorbance (1640 cm-1) disappeared while the carbonyl absorbance remained constant (1735 cm-1). Once the reaction was judged complete, the unreacted olefin starting material was removed by vacuum distillation. The resulting organofunctional siloxane oligomers were analyzed without further purification by 1H-NMR spectroscopy.
Into either a 50 or 100 ml three-necked, round-bottomed flask equipped with a magnetic stirrer, a thermocouple with a J-Kem controller, a heating mantle and a short path distillation apparatus with a nitrogen inlet was added the uC10 derivative and the hydrosilane oligomer. In most cases the reaction was run neat, however the uC10MEE-16-based reactions were two phase so that isopropanol (IPOH) was added to compatiblize the reactants. Once the catalyst was added (1 drop) at ambient temperatures, the temperature was carefully monitored. The reaction was gentle warmed by an air gun until about 30° C. when heating was discontinued and a dry ice bath was used to moderate the vigorous exotherm. Once the temperature had stabilized, then the heating mantle was used to hold the reaction temperature at 60° C. for the next few hours. The reaction's progress was easily monitored by FTIR as both the hydrosilane absorbance (2150 cm^−1) and the terminal olefin's absorbance (1640 cm^−1) disappeared while the carbonyl absorbance remained constant (1735 cm^−1). When the reactions were judged complete, they were typically subjected to reduced pressure to remove any excess reagents or solvents. The products were transferred into 2 oz glass bottles and remained liquids except for the uC16MEE-16-based materials that solidified. […]

[2] = Surface tension of grafted siloxane derivatives
Description: as §1

[3] = Solubility in organic solvents

Row | Viscosity (25° C.) [1] | Surface Tension (20° C.) [2] [mN/m] | Solubility in polar organic solvents (in words) ([3]; polar organic solvents) | Solubility (wt %) MEK ([3]; solvent MEK) [wt %] | Solubility (wt %) Acetone ([3]; solvent acetone) [wt %] | Solubility (wt %) Acetonitrile ([3]; solvent acetonitrile) [wt %] | Solubility (wt %) Ethylene Glycol ([3]; solvent ethylene glycol) [wt %] | Solubility (wt %) Heptanes ([3]; solvent heptanes) [wt %] | Solubility (wt %) Methanol ([3]; solvent methanol) [wt %] | SMILES
1 | 7.1 | 22.6 | significantly more soluble | >50 | >50 | 13 | 6 | >50 | 17 | COC(=O)CCCCCCCCC[Si](C)(O[Si](C)(C)C)O[Si](C)(C)C [Compound 6]
2 | 16 | 20.8 | – | – | – | – | – | – | – | C[Si](C)(C)O[Si](C)(CCCCCCCCCC(=O)OCCC(F)(F)C(F)(F)C(F)(F)C(F)(F)F)O[Si](C)(C)C [Compound 9]
3 | 17 | 21.4 | – | – | – | – | – | – | – | COCCOCCOCCOC(=O)CCCCCCCCC[Si](C)(O[Si](C)(C)C)O[Si](C)(C)C [Compound 7]
